Our source for the Activity and IC50 values is ChEMBL document CHEMBL1154730, “Novel quinolines and pyrimido[4,5-b]quinolines bearing biologically active sulfonamide moiety as a new class of antitumor agents” (Eur J Med Chem, 2010).

Converted amounts (≈) assume the structure as drawn.

The first experiment is described as follows: Cytotoxicity against mouse EAC cells assessed as non-viable cells at 50 ug/ml after 2 hrs by trypan blue exclusion. Type of experiment: functional, Ehrlich.
Details: not given
For the molecule `C=CCNC(=S)NC1=C(C#N)C(c2ccc(Cl)cc2Cl)C2=C(CCCC2=O)N1c1ccc(S(N)(=O)=O)cc1` (stereo not given), the Activity is 33%.

On to `CCCCn1c(=S)[nH]c2c(c1=N)C(c1ccc(Cl)cc1Cl)C1=C(CCCC1=O)N2c1ccc(S(N)(=O)=O)cc1` (stereo not given), for which the Activity is 80%.

With `N#CC1=C(N)N(c2ccc(S(N)(=O)=O)cc2)C2=C(C(=O)CCC2)C1c1ccc(Cl)cc1Cl` (stereo not given), the Activity is 65%.

In the case of `N#CC1=C(N2C(=O)CCC2=O)N(c2ccc(S(N)(=O)=O)cc2)C2=C(C(=O)CCC2)C1c1ccc(Cl)cc1Cl` (stereo not given), the Activity stood at 70%.

For the molecule `N#CC1=C(NC(N)=O)N(c2ccc(S(N)(=O)=O)cc2)C2=C(C(=O)CCC2)C1c1ccc(Cl)cc1Cl` (stereo not given), the Activity is 40%.

In the case of `N#CC1=C(NC(=S)Nc2ccc(Br)cc2)N(c2ccc(S(N)(=O)=O)cc2)C2=C(C(=O)CCC2)C1c1ccc(Cl)cc1Cl` (stereo not given), the Activity amounted to 90%.

Regarding `N#CC1=C(NS(=O)(=O)c2ccc([N+](=O)[O-])cc2)N(c2ccc(S(N)(=O)=O)cc2)C2=C(C(=O)CCC2)C1c1ccc(Cl)cc1Cl` (stereo not given), the Activity amounted to 85%.

In the case of `N#CC1=C(NS(=O)(=O)c2ccc(Br)cc2)N(c2ccc(S(N)(=O)=O)cc2)C2=C(C(=O)CCC2)C1c1ccc(Cl)cc1Cl` (stereo not given), the Activity stood at 90%.

Take `N=c1c2c([nH]c(=S)n1-c1ccc(Cl)cc1)N(c1ccc(S(N)(=O)=O)cc1)C1=C(C(=O)CCC1)C2c1ccc(Cl)cc1Cl` (stereo not given): the Activity came to 90%.

In the case of `COc1cccc2c1C(=O)c1c(O)c3c(c(O)c1C2=O)C[C@@](O)(C(=O)CO)C[C@@H]3O[C@H]1C[C@H](N)[C@H](O)[C@H](C)O1` [DOXORUBICIN], the Activity was 68%.

The nature of another experiment: Cytotoxicity against mouse EAC cells assessed as non-viable cells at 100 ug/ml after 2 hrs by trypan blue exclusion. The format is functional, Ehrlich.
Details: not given
On to `C=CCNC(=S)NC1=C(C#N)C(c2ccc(Cl)cc2Cl)C2=C(CCCC2=O)N1c1ccc(S(N)(=O)=O)cc1` (stereo not given), for which the Activity is on record as 40%.

With `CCCCn1c(=S)[nH]c2c(c1=N)C(c1ccc(Cl)cc1Cl)C1=C(CCCC1=O)N2c1ccc(S(N)(=O)=O)cc1` (stereo not given), the Activity is given as 80%.

For the molecule `N#CC1=C(N)N(c2ccc(S(N)(=O)=O)cc2)C2=C(C(=O)CCC2)C1c1ccc(Cl)cc1Cl` (stereo not given), the Activity was determined as 95%.

For `N#CC1=C(N2C(=O)CCC2=O)N(c2ccc(S(N)(=O)=O)cc2)C2=C(C(=O)CCC2)C1c1ccc(Cl)cc1Cl` (stereo not given), the Activity was determined as 90%.

On to `N#CC1=C(NC(N)=O)N(c2ccc(S(N)(=O)=O)cc2)C2=C(C(=O)CCC2)C1c1ccc(Cl)cc1Cl` (stereo not given), for which the Activity was 60%.

In the case of `N#CC1=C(NC(=S)Nc2ccc(Br)cc2)N(c2ccc(S(N)(=O)=O)cc2)C2=C(C(=O)CCC2)C1c1ccc(Cl)cc1Cl` (stereo not given), the Activity is given as 90%.

On to `N#CC1=C(NS(=O)(=O)c2ccc([N+](=O)[O-])cc2)N(c2ccc(S(N)(=O)=O)cc2)C2=C(C(=O)CCC2)C1c1ccc(Cl)cc1Cl` (stereo not given), for which the Activity is 90%.

On to `N#CC1=C(NS(=O)(=O)c2ccc(Br)cc2)N(c2ccc(S(N)(=O)=O)cc2)C2=C(C(=O)CCC2)C1c1ccc(Cl)cc1Cl` (stereo not given), for which the Activity was 100%.

In the case of `N=c1c2c([nH]c(=S)n1-c1ccc(Cl)cc1)N(c1ccc(S(N)(=O)=O)cc1)C1=C(C(=O)CCC1)C2c1ccc(Cl)cc1Cl` (stereo not given), the Activity came to 95%.

`COc1cccc2c1C(=O)c1c(O)c3c(c(O)c1C2=O)C[C@@](O)(C(=O)CO)C[C@@H]3O[C@H]1C[C@H](N)[C@H](O)[C@H](C)O1` [DOXORUBICIN]: the Activity came to 100%.

A further experiment can be described thus: Cytotoxicity against mouse EAC cells assessed as non-viable cells at 10 ug/ml after 2 hrs by trypan blue exclusion. The format is functional, Ehrlich.
Details: not given
For the molecule `C=CCNC(=S)NC1=C(C#N)C(c2ccc(Cl)cc2Cl)C2=C(CCCC2=O)N1c1ccc(S(N)(=O)=O)cc1` (stereo not given), the Activity was found to be 10%.

`CCCCn1c(=S)[nH]c2c(c1=N)C(c1ccc(Cl)cc1Cl)C1=C(CCCC1=O)N2c1ccc(S(N)(=O)=O)cc1` (stereo not given): the Activity is 70%.

In the case of `N#CC1=C(N)N(c2ccc(S(N)(=O)=O)cc2)C2=C(C(=O)CCC2)C1c1ccc(Cl)cc1Cl` (stereo not given), the Activity turned out to be 40%.

With `N#CC1=C(N2C(=O)CCC2=O)N(c2ccc(S(N)(=O)=O)cc2)C2=C(C(=O)CCC2)C1c1ccc(Cl)cc1Cl` (stereo not given), the Activity worked out at 20%.

Consider `N#CC1=C(NC(N)=O)N(c2ccc(S(N)(=O)=O)cc2)C2=C(C(=O)CCC2)C1c1ccc(Cl)cc1Cl` (stereo not given), for which the Activity is 20%.

On to `N#CC1=C(NC(=S)Nc2ccc(Br)cc2)N(c2ccc(S(N)(=O)=O)cc2)C2=C(C(=O)CCC2)C1c1ccc(Cl)cc1Cl` (stereo not given), for which the Activity was determined as 50%.

As for `N#CC1=C(NS(=O)(=O)c2ccc([N+](=O)[O-])cc2)N(c2ccc(S(N)(=O)=O)cc2)C2=C(C(=O)CCC2)C1c1ccc(Cl)cc1Cl` (stereo not given), the Activity is on record as 50%.

`N#CC1=C(NS(=O)(=O)c2ccc(Br)cc2)N(c2ccc(S(N)(=O)=O)cc2)C2=C(C(=O)CCC2)C1c1ccc(Cl)cc1Cl` (stereo not given): the Activity stood at 90%.

On to `N=c1c2c([nH]c(=S)n1-c1ccc(Cl)cc1)N(c1ccc(S(N)(=O)=O)cc1)C1=C(C(=O)CCC1)C2c1ccc(Cl)cc1Cl` (stereo not given), for which the Activity was 50%.

Consider `COc1cccc2c1C(=O)c1c(O)c3c(c(O)c1C2=O)C[C@@](O)(C(=O)CO)C[C@@H]3O[C@H]1C[C@H](N)[C@H](O)[C@H](C)O1` [DOXORUBICIN], for which the Activity came out at 19%.

Another experiment can be described thus: Cytotoxicity against mouse EAC cells assessed as non-viable cells at 25 ug/ml after 2 hrs by trypan blue exclusion. The format is functional, Ehrlich.
Details: not given
As to `C=CCNC(=S)NC1=C(C#N)C(c2ccc(Cl)cc2Cl)C2=C(CCCC2=O)N1c1ccc(S(N)(=O)=O)cc1` (stereo not given), the Activity is reported as 30%.

Take `CCCCn1c(=S)[nH]c2c(c1=N)C(c1ccc(Cl)cc1Cl)C1=C(CCCC1=O)N2c1ccc(S(N)(=O)=O)cc1` (stereo not given): the Activity is given as 70%.

For the molecule `N#CC1=C(N)N(c2ccc(S(N)(=O)=O)cc2)C2=C(C(=O)CCC2)C1c1ccc(Cl)cc1Cl` (stereo not given), the Activity was 50%.

For `N#CC1=C(N2C(=O)CCC2=O)N(c2ccc(S(N)(=O)=O)cc2)C2=C(C(=O)CCC2)C1c1ccc(Cl)cc1Cl` (stereo not given), the Activity is listed as 50%.

In the case of `N#CC1=C(NC(N)=O)N(c2ccc(S(N)(=O)=O)cc2)C2=C(C(=O)CCC2)C1c1ccc(Cl)cc1Cl` (stereo not given), the Activity was determined as 35%.

With `N#CC1=C(NC(=S)Nc2ccc(Br)cc2)N(c2ccc(S(N)(=O)=O)cc2)C2=C(C(=O)CCC2)C1c1ccc(Cl)cc1Cl` (stereo not given), the Activity is 50%.

In the case of `N#CC1=C(NS(=O)(=O)c2ccc([N+](=O)[O-])cc2)N(c2ccc(S(N)(=O)=O)cc2)C2=C(C(=O)CCC2)C1c1ccc(Cl)cc1Cl` (stereo not given), the Activity is on record as 85%.

Regarding `N#CC1=C(NS(=O)(=O)c2ccc(Br)cc2)N(c2ccc(S(N)(=O)=O)cc2)C2=C(C(=O)CCC2)C1c1ccc(Cl)cc1Cl` (stereo not given), the Activity turned out to be 90%.

For `N=c1c2c([nH]c(=S)n1-c1ccc(Cl)cc1)N(c1ccc(S(N)(=O)=O)cc1)C1=C(C(=O)CCC1)C2c1ccc(Cl)cc1Cl` (stereo not given), the Activity was 60%.

On to `COc1cccc2c1C(=O)c1c(O)c3c(c(O)c1C2=O)C[C@@](O)(C(=O)CO)C[C@@H]3O[C@H]1C[C@H](N)[C@H](O)[C@H](C)O1` [DOXORUBICIN], for which the Activity was 32%.

The next experiment can be described thus: Cytotoxicity against mouse EAC cells after 2 hrs by trypan blue exclusion. Type of experiment: functional, cell-based. Particulars: ehrlich.
On to `C=CCNC(=S)NC1=C(C#N)C(c2ccc(Cl)cc2Cl)C2=C(CCCC2=O)N1c1ccc(S(N)(=O)=O)cc1` (stereo not given), for which the concentration for half-maximal inhibition (IC50) was above 100 µg/mL.

The molecule `CCCCn1c(=S)[nH]c2c(c1=N)C(c1ccc(Cl)cc1Cl)C1=C(CCCC1=O)N2c1ccc(S(N)(=O)=O)cc1` (stereo not given) yielded an IC50 of 7 µg/mL (≈ 11.6 µM).

For the molecule `N#CC1=C(N)N(c2ccc(S(N)(=O)=O)cc2)C2=C(C(=O)CCC2)C1c1ccc(Cl)cc1Cl` (stereo not given), the IC50 was determined as 25 µg/mL (≈ 51.1 µM).

Molecule `N#CC1=C(N2C(=O)CCC2=O)N(c2ccc(S(N)(=O)=O)cc2)C2=C(C(=O)CCC2)C1c1ccc(Cl)cc1Cl` (stereo not given) registered an IC50 of 25 µg/mL (≈ 43.7 µM).

`N#CC1=C(NC(N)=O)N(c2ccc(S(N)(=O)=O)cc2)C2=C(C(=O)CCC2)C1c1ccc(Cl)cc1Cl` (stereo not given) had an IC50 of 75 µg/mL (≈ 141 µM).

For the molecule `N#CC1=C(NC(=S)Nc2ccc(Br)cc2)N(c2ccc(S(N)(=O)=O)cc2)C2=C(C(=O)CCC2)C1c1ccc(Cl)cc1Cl` (stereo not given), the IC50 was 25 µg/mL (≈ 35.5 µM).

`N#CC1=C(NS(=O)(=O)c2ccc([N+](=O)[O-])cc2)N(c2ccc(S(N)(=O)=O)cc2)C2=C(C(=O)CCC2)C1c1ccc(Cl)cc1Cl` (stereo not given) returned an IC50 of 20 µg/mL (≈ 29.6 µM).

`N#CC1=C(NS(=O)(=O)c2ccc(Br)cc2)N(c2ccc(S(N)(=O)=O)cc2)C2=C(C(=O)CCC2)C1c1ccc(Cl)cc1Cl` (stereo not given) displayed an IC50 of 5.5 µg/mL (≈ 7.76 µM).

Molecule `N=c1c2c([nH]c(=S)n1-c1ccc(Cl)cc1)N(c1ccc(S(N)(=O)=O)cc1)C1=C(C(=O)CCC1)C2c1ccc(Cl)cc1Cl` (stereo not given) yielded an IC50 of 10 µg/mL (≈ 15.2 µM).

As for `COc1cccc2c1C(=O)c1c(O)c3c(c(O)c1C2=O)C[C@@](O)(C(=O)CO)C[C@@H]3O[C@H]1C[C@H](N)[C@H](O)[C@H](C)O1` [DOXORUBICIN], the IC50 stood at 38 µg/mL (≈ 69.9 µM).
